{"source": "patent US20250093315A1", "about": "“MOLECULAR SENSORS, METHOD AND KIT FOR THE DETECTION AND QUANTIFICATION OF CARBON DIOXIDE” (ETH Zurich, priority 2022, published 2025)", "key": {"HeLa cells": {"tested_on": "HeLa cells", "test": "Cell imaging of CO2", "type": "cell-based", "settings": "5 μM for 10 minutes; ambient air or 5% CO2; imaged at different time points", "protocol": "The selectivity of the compound (I4) was evaluated against common analytes in cells. HeLa cells were treated with compound (I4) [5 μM] for 10 minutes, followed by washing thrice to remove excess sensor. Then, as an exogenous CO2 model, the cells were incubated under ambient air or at 5% CO2 and imaged at different time points. […] In addition, time-dependent response of cells that were incubated under ambient conditions was attributed to basal levels of CO2 production by metabolic processes."}, "[1]": {"test": "Reaction kinetics by fluorescence at varying concentrations of sensor or CO2", "settings": "dependence for both (I1) and carbon dioxide", "from_the_text": "The reaction kinetics were investigated with the same compounds of Formulae (I1) and (I1b) by measuring fluorescence at different time points using varying concentrations of either (I1) or carbon dioxide."}}}
{"smiles": "CN(C)c1ccc2c(NCc3ccccc3N=P(c3ccccc3)(c3ccccc3)c3ccccc3)c3ccc(=[N+](C)C)cc-3oc2c1", "note": "[(I4)]", "values": [{"measurement": "fluorescent signal in cells", "setting": "HeLa cells", "value": "significant time-dependent fluorescent increase in the red channel and decrease in the green channel"}]}
{"smiles": "CCN(CC)c1ccc2c(NCc3ccccc3N=P(c3ccccc3)(c3ccccc3)c3ccccc3)cc(=O)oc2c1", "note": "[Compound (I1)]", "values": [{"measurement": "reaction order", "setting": "[1]", "value": "first-order dependence"}]}
